In patent US6455268B1, “Hydrolytic enzyme substrates and assay method” (Iconix Pharmaceuticals Inc., priority 1999, dated 2002):

Key:
[1] = molecular target: T1, β-glucuronidase (GUS) (Escherichia coli, UniProt P05804); test: in vitro hydrolysis with β-glucuronidase, fluorimeter excitation and emission spectra; assay type: biochemical, E. coli
T1 construct: purchased Sigma Chemicals, St. Louis, Mo
Method: A fluorimetery cuvette was prepared by adding 3 μL of 0.5 mM 7CC-FDG in DMSO (Compound F), to 3 mL of 50 mM Hepes buffer, pH 7.0, with 1 mM each CaCl2 and MgSO4. Fluorescent excitation and emission spectra of the sample were recorded using a Jobin-Yvon-SPEX Instruments Fluormax-2 fluorimeter under the following conditions: excitation at 300-500 nm with emission recorded at 515 or 530 nm (FIG. 4, scan A and B respectively); excitation at 350 nm and emission recorded at 425-650 nm (FIG. 4, scan C); excitation at 406 nm and emission recorded at 425-530 nm (FIG. 4, scan D); and excitation at 488 nm with emission recorded at 500-650 nm (FIG. 4, scan E). […] The ratio computed is the emission at 450 nm when the exciting light was of 350 nm or 406 nm divided by the emission at 515 nm when the exciting light was of 488 nm.

[2] = test system: orange peel acetylesterase (OPAE); test: in vitro hydrolysis with orange peel acetylesterase, fluorescence/FRET plate reading; assay type: biochemical
Method: (§1) Ninety-six well microtiter plates were prepared containing duplicate samples, each sample containing 4-(5-chloro-6-hydroxycoumarinamido)butyl-5-carboxamidofluorescein diacetate (“Compound 11”, 2 mM, 2 μL) in DMSO with phosphate buffered saline (PBS, 200 μL, pH 7.0). To each well was added orange peel acetylesterase (OPAE, Sigma, St. Louis, Mo., 5 μL, 39 U/mL) as a suspension in (NH4)2SO4 (2.5 M) and sodium oxalate (0.1 M). A set of control samples was prepared in which the OPAE was replaced with PBS (no enzyme). […] The plate was read prior to OPAE addition, at time 0, and at 5, 10, 30, 60, and 150 minutes after addition. Each reading was taken at three wavelength pairs using a Molecular Devices fmax fluorescent plate reader: excite 485/emission 530 (to measure fluorescein fluorescence); excite 350/emission 530 (to measure FRET fluorescence); and excite […] (to measure coumarin fluorescence).
A control set of experiments was preformed as above, but substituting a mixture of equal molar amounts of 5-carboxyfluorescein diacetate (5-CFDA, Calbiochem) and 6-chloro-7-hydroxycoumarin methyl ester. This mixture was non-fluorescent at 530 nm prior to OPAE addition and was fluorescent at 460 nm. […] Furthermore, in this unlinked mixture case, the ratio of 530 nm to 460 nm only changed from 0.13 to 0.7; in contrast to the ratio change for the compound above, from 0.13 to 13.5.

[3] = control samples with OPAE replaced by PBS (no enzyme), non-enzymatic hydrolysis; assay type: physicochemical; conditions: PBS pH 7.0, no enzyme
Method: as §1

T1 sequence (P05804 whole entry): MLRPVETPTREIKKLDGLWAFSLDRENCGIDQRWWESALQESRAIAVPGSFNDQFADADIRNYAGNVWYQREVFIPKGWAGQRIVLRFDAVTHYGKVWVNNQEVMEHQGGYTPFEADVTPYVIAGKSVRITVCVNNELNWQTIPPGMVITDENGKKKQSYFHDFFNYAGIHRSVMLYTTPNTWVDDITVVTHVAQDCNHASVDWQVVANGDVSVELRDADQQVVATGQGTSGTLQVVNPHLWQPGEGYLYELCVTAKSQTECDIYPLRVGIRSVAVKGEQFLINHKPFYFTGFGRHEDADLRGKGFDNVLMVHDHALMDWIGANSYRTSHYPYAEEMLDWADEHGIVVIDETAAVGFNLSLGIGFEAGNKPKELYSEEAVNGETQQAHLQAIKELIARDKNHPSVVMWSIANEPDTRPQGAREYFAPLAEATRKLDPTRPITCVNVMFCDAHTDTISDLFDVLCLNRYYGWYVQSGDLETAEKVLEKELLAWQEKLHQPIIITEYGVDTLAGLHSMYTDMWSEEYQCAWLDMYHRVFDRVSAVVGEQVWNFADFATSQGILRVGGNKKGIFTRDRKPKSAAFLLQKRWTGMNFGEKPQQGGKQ

| SMILES | cleavage of the substrate by β-glucuronidase ([1]; 72 Units GUS, 50 mM Hepes pH 7.0) | dynamic range of emission ratio 450 nm/515 nm ([1]; excitation at 350 nm and 488 nm, respectively) | dynamic range of emission ratio 450/515 ([1]; excitation at 406 nm and 488 nm) | quenching of the coumarin moiety fluorescence in the completely cleaved product ([1]; scan D (excitation 406 nm), 60 min. versus 0 min. time point) | ratio of 530 nm to 460 nm emission, end of change ([2]; after OPAE hydrolysis (0.94 U/mL, read up to 150 minutes), excitation 350 nm, PBS pH 7.0) | change of coumarin fluorescence (460 nm) after OPAE addition ([2]; in the presence of OPAE) | ratio of 530 nm to 460 nm emission, start of change ([2]; prior to OPAE hydrolysis, excitation 350 nm, PBS pH 7.0) | non-enzymatic hydrolysis [3] |
| --- | --- | --- | --- | --- | --- | --- | --- | --- |
| O=C(O)CCC(NC(=O)Nc1ccc2c(c1)C(=O)OC21c2ccc(OC3OC(C(=O)O)C(O)C(O)C3O)cc2Oc2cc(OC3OC(C(=O)O)C(O)C(O)C3O)ccc21)C(=O)NCCCCNC(=O)c1cc2cc(Cl)c(O)cc2oc1=O (centres unmarked) [Compound 7CC-FDG] | can be cleaved by β-glucuronidase readily | about 23 fold | about 50 fold | more than 50% | – | – | – | – |
| CC(=O)Oc1ccc2c(c1)Oc1cc(OC(C)=O)ccc1C21OC(=O)c2cc(C(=O)NCCCCNC(=O)c3cc4c(Cl)c(O)ccc4oc3=O)ccc21 [Compound 11, 4-(5-chloro-6-hydroxycoumarinamido)butyl-5-carboxamidofluorescein diacetate] | – | – | – | – | 13.5 | decrease in fluorescence | 0.13 | very low rates of non-enzymatic hydrolysis |
